Measurements from EP2062893A1, “Fused imidazoles for cancer treatment” (Bayer Schering Pharma AG, priority 2007, dated 2009).

Assays:
Format in all cases: cell-based
OvCAR3 cells = experiment: Cellular proliferation / Cytotoxicity assay (Alamar Blue / Resazurin cell viability); conditions: Homo sapiens, OVCAR-3, 48h incubation, read-out: Anti-proliferative / Cytotoxic activity (OvCAR3 cells)
Procedure: Wells containing untreated control cells were filled with 200 µl DMEM (Dulbecco's Modified Eagle Medium) containing 0.5vol% v:v DMSO. The cells are then incubated with the substances for 48h at 37°C in a humidified atmosphere containing 5vol% CO2. To determine the viability of the cells, 20 µl of a Resazurin solution (90mg / I) are added. […] Viabilities are expressed as % values.

phosphorylated GSK3 = experiment: Cellular pGSK3 assay (phospho-GSK3 Ser9 sandwich ELISA); conditions: Homo sapiens; MCF7 cells, 48h incubation, IC50 of pGSK3 inhibition
Procedure, shortened: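 MCF7 cells treated 48 h at 37 °C with compound dilutions from 10 mM DMSO stocks, then lysed. Phospho-GSK3 Ser9 captured in sandwich ELISA, detected with HRP secondary and TMB, absorbance 450 nm; IC50 of pGSK3 inhibition calculated.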

[1] = tested on: phosphorylated Akt protein; experiment: Cellular PI3K / Akt pathway assay (phospho-Akt Ser473 sandwich ELISA); conditions: Homo sapiens; MCF7 cells, ß-Heregulin (20ng/ml) stimulation, 48h incubation
Procedure, shortened: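 MCF7 cells, serum-starved in 0.1% charcoal-treated FCS medium, were treated with compound alongside 20 ng/ml ß-heregulin stimulation (0.5% DMSO controls). Lysates analysed by phospho-Akt1 Ser473 sandwich ELISA (overnight capture at 4°C, Akt1 detection antibody, HRP/TMB), absorbance at 450 nm.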

SMILES	IC50 (OvCAR3 cells) [µM]	IC50 (phosphorylated GSK3) [µM]	IC50 [1] [µM]
c1ccc(-c2c(-c3ccc(CN4CCC(c5n[nH]c(-c6ccccn6)n5)CC4)cc3)nc3scnn23)cc1 [Example 11, 5-phenyl-6-(4-{[4-(5-pyridin-2-yl-1,2,4-triazol-3-yl)piperidin-1-yl]methyl}phenyl)imidazo[2,1-b][1,3,4]thiadiazole]	< 10	1 to 10	< 1
Brc1cccn2c(-c3ccccc3)c(-c3ccc(CN4CCC(c5n[nH]c(-c6ccccn6)n5)CC4)cc3)nc12 [Example 25, 8-bromo-3-phenyl-2-(4-{[4-(5-pyridin-2-yl-1,2,4-triazol-3-yl)piperidin-1-yl]methyl}phenyl)imidazo[1,2-a]pyridine]	< 10	< 1	< 1
COc1ccc2nc(-c3ccc(CN4CCC(c5n[nH]c(-c6ccccn6)n5)CC4)cc3)c(-c3ccccc3)n2n1 [Example 32, 6-methoxy-3-phenyl-2-(4-{[4-(5-pyridin-2-yl-1,2,4-triazol-3-yl)piperidin-1-yl]methyl}phenyl)imidazo[1,2-b]pyridazine]	< 10	1 to 10	< 1
c1ccc(-c2nc(C3CCN(Cc4ccc(-c5nc6ccccn6c5-c5ccncc5)cc4)CC3)n[nH]2)nc1 [Example 16, 3-pyridin-4-yl-2-(4-{[4-(5-pyridin-2-yl-1,2,4-triazol-3-yl)piperidin-1-yl]methyl}phenyl)imidazo[1,2-a]pyridine]	< 10	1 to 10	1 to 10
Fc1ccc2nc(-c3ccc(CN4CCC(c5n[nH]c(-c6ccccn6)n5)CC4)cc3)c(-c3ccccc3)n2c1 [Example 22, 6-fluoro-3-phenyl-2-(4-{[4-(5-pyridin-2-yl-1,2,4-triazol-3-yl)piperidin-1-yl]methyl}phenyl)imidazo[1,2-a]pyridine]	< 10	1 to 10	< 1
COc1ccc(-c2c(-c3ccc(CN4CCC(c5n[nH]c(-c6ccccn6)n5)CC4)cc3)nc3ncccn23)cc1 [Example 20, 3-(4-methoxyphenyl)-2-(4-{[4-(5-pyridin-2-yl-1,2,4-triazol-3-yl)piperidin-1-yl]methyl}phenyl)imidazo[1,2-a]pyrimidine]	> 10	> 10	> 10
